Results from patent publication US5434141A, “Medicament for the treatment of hyperlipidaemia and/or atherosclerosis” (Steigerwald Arzneimittelwerk GmbH, priority 1990, dated 1995).
“Also recorded” adds a separate entry of the source. Where two headings read alike, the source gives them in different places.

Key:
[1] = Experiment 2: hepatic lipid concentration in hamsters fed a lipidaemia diet, 4 weeks; type: in vivo, male golden hamsters; details: four weeks
Experimental: (§1) 3 Groups each of 20 male golden hamsters were fed for 4 weeks with a lipidaemia diet (hamster maintenance diet and 2% cholesterol). The feed in the two treated groups was additionally supplemented with in each case 5% galacturonic acid or DEAE-polygalacturonic acid (DEAE=diethylaminoethyl).
(§2) 3 Groups each of 20 male golden hamsters were treated for 4 weeks like the animals described in 1. […] Group 1 was the lipidaemia control.

[2] = Experimental: as §1, §2
[3] = by contrast with pectin; cited from earlier work
[4] = Tolerability / toxic effects (general statement); details: in vivo
[5] = Experiment 1: hepatic lipid concentration in hamsters fed a lipidaemia diet, 4 weeks; type: in vivo, male golden hamsters; details: four weeks
Experimental: (§3) 3 Groups each of 20 male golden hamsters were fed for 4 weeks with a lipidaemia diet (hamster maintenance diet and 2% cholesterol).
(§4) The dose taken was between 4 and 5 g/kg of body weight and day.
(§5) After 4 weeks the animals were sacrificed and the serum and hepatic lipid concentration was measured. The results of the analyses are compiled in Tables 1, 2 and 3.

[6] = Experiment 1: serum cholesterol and lipid concentration in hamsters fed a lipidaemia diet, 4 weeks; type: in vivo, male golden hamsters; details: for hypocholesterolaemic / lipid-lowering action, in words: serum
Experimental: as §3, §4, §5

[7] = in vivo; cited from earlier work
[8] = mean, n = 20/group, 5% in feed, * p ≤ 0.05
[9] = mean, n = 20/group, 5% in feed, four weeks
[10] = mean, n = 20/group, 5% in feed, four weeks, * p ≤ 0.05
[11] = significant, p≤0.05, four weeks

## polygalacturonic acid
[1]; 5% in feed
  Hepatic cholesterol, D = difference from the control group: -26%
  Hepatic total lipids, D = difference from the control group: -25%
[1]; [8]
  Hepatic cholesterol concentration: 22.1 mg/g wet weight
  Hepatic total lipids concentration: 67.4 mg/g wet weight
[1]; significant
  lowering of hepatic cholesterol concentration: 26%
  lowering of hepatic total lipid concentration: 25%
[2]; 5% in feed, four weeks
  Free cholesterol in serum, D = difference from the control group: -32%
  HDL-cholesterol in serum, D = difference from the control group: -15%
  LDL-cholesterol in serum, D = difference from the control group: -18%
  Phospholipids in serum, D = difference from the control group: -19%
  Total cholesterol in serum, D = difference from the control group: -13%
  Total lipids in serum, D = difference from the control group: -14%
  VLDL + LDL-cholesterol in serum, D = difference from the control group: -8%
  VLDL-cholesterol in serum, D = difference from the control group: -4%
[2]; [9]
  Phospholipids concentration in serum: 385 mg/dL
  Total lipids concentration in serum: 1338 mg/dL
  Triglycerides concentration in serum: 269 mg/dL
[2]; [10]
  Free cholesterol concentration in serum: 80 mg/dL
  HDL-cholesterol concentration in serum: 149 mg/dL
  LDL-cholesterol concentration in serum: 163 mg/dL
  Total cholesterol concentration in serum: 361 mg/dL
  VLDL + LDL-cholesterol concentration in serum: 212 mg/dL
  VLDL-cholesterol concentration in serum: 48 mg/dL
[2]; significant, four weeks
  lowering of serum phospholipid concentration: 19%
  lowering of serum total lipid concentration: 14%
[2]; [11]
  lowering of serum HDL-cholesterol: 15%
  lowering of serum free cholesterol: 32%
  lowering of serum total cholesterol: 13%

## O=C(O)[C@H]1O[C@H](O)[C@H](O)[C@@H](O)[C@H]1O [galacturonic acid, α-D-galacturonic acid]
[3]
  solubility in water: readily soluble in water
[4]
  tolerability: as a rule well tolerated
[5]; 5% in feed
  Hepatic cholesterol, D = difference from the control group: -9%
  Hepatic total lipids, D = difference from the control group: -34%
[5]; [8]
  Hepatic cholesterol concentration: 27 mg/g wet weight
  Hepatic total lipids concentration: 111 mg/g wet weight
[5]; significant
  reduction of total lipid concentration in the liver: 34%
[6]; 5% in feed, four weeks
  Free cholesterol in serum, D = difference from the control group: -19%
  HDL-cholesterol in serum, D = difference from the control group: -20%
  LDL-cholesterol in serum, D = difference from the control group: -23%
  Phospholipids in serum, D = difference from the control group: -17%
  Total cholesterol in serum, D = difference from the control group: -20%
  Total lipids in serum, D = difference from the control group: -18%
  Triglycerides in serum, D = difference from the control group: +7%
  VLDL + LDL-cholesterol in serum, D = difference from the control group: -20%
  VLDL-cholesterol in serum, D = difference from the control group: -14%
[6]; [9]
  Phospholipids concentration in serum: 322 mg/dL
  Total lipids concentration in serum: 1060 mg/dL
  Triglycerides concentration in serum: 216 mg/dL
[6]; [10]
  Free cholesterol concentration in serum: 96 mg/dL
  HDL-cholesterol concentration in serum: 118 mg/dL
  LDL-cholesterol concentration in serum: 117 mg/dL
  Total cholesterol concentration in serum: 271 mg/dL
  VLDL + LDL-cholesterol concentration in serum: 153 mg/dL
  VLDL-cholesterol concentration in serum: 36 mg/dL
[6]
  hypocholesterolaemic / lipid-lowering action, in words: significant decrease in the cholesterol and lipid concentrations; also recorded: has a hypocholesterolaemic action
[6]; listed as α-D-galacturonic acid
  hypocholesterolaemic / lipid-lowering action, in words: shows a hypocholesterolaemic action in the serum
[6]; significant, four weeks
  lowering of serum HDL-cholesterol: 20%
  lowering of serum LDL-cholesterol: 23%
  lowering of serum VLDL- plus LDL-cholesterol: 20%
  lowering of serum free cholesterol: 19%
  lowering of serum phospholipid concentration: 17%
  lowering of serum total lipid concentration: 18%
[6]; [11]
  lowering of serum concentration of total cholesterol: 20%
[7]
  toxic effects: No toxic effects are known
